Assay [1] has as its target PASK (Homo sapiens (Human), UniProt Q96RG2). Nature of the assay: PAS Kinase Luminescence Assay (Kinase-Glo). It is filed as biochemical. To be noted: purified hPASK from insect cells, read-out: IC50 Kinase Domain. How it is done: Biochemical Assay for hPASK Activity
PAS Kinase Luminescence Assay
One assay for purified hPASK activity utilizes the Kinase-Glo Luminescent Kinase Assay (Promega), which quantifies the amount of ATP remaining in solution following kinase reaction. The assay is carried out in a 96-well plate format and is performed by adding a volume of Kinase-Glo Reagent (Promega, catalog # V3771) equal to the volume of solution in the well of a completed kinase reaction. Kinase-Glo reagent contains Luciferase and its substrate. After addition to a kinase reaction it allows to measure luminescence. The amount of ATP left in solution at the time of Kinase-Glo Plus addition is directly proportional to the luminescence that is measured in each well, and inversely correlated with kinase activity.
Purified hPASK from insect cells (0.02 μg) is added to a 50 μL reaction mix containing 40 mM HEPES (pH 7.0), 100 mM KCl, 5 mM MgCl2, 1 mM DTT and […] of MBP protein. Inhibitory compounds are then added and the mixture is incubated for 10 min at 25° C. before adding 5 μL of ATP (at desired concentration). The reaction is allowed to proceed at 25° C. for 1 hour before adding 50 μL of Kinase-Glo reagent. The luminescence is measured as soon as 10 minutes after Kinase-Glo reagent is added.

Assay [2] addresses PASK (UniProt # Q96RG2; human recombinant N-terminal GST tagged construct, residues 879-1323) (Homo sapiens (Human), UniProt Q96RG2). The assay can be described thus: PASK ATP Radiochemical Assay. The format is biochemical. To be noted: 33P-ATP radiochemical, Myelin Basic Protein substrate; read-out: IC50 Kinase Domain. On the procedure:
PASK ATP Radiochemical Assay
Test compounds in DMSO are then added and the mixture, followed by delivery of ^33P-ATP (specific activity 0.01 μCi/μl final) to initiate the reaction. […] The entire reaction mixture is washed through onto a P81 Phosphocellulose paper and washed three times for 10 minutes in 75 mM phosphoric acid and once in methanol prior to drying and scintillation counting.

The test system of assay [3] is Sprague Dawley rats on a high fructose diet. Nature of the assay: Rat High Fructose Model with Fast/Re-Feed. It is filed as in vivo. The settings on record: for body weight change relative to the Vehicle group: FIG. 1; for decrease in plasma glucose compared to vehicle / reduction in plasma insulin levels: after fast and re-feed. How it is done:
Rat High Fructose Model with Fast/Re-Feed
Another standard model of human hyperlipidemia and insulin resistance is the rat fed a high fructose diet for several weeks (33). Additionally, since hepatic lipid synthesis is known to be regulated by food consumption, the fast/reefed cycle of Horton et al. (32) was incorporated into the chronic high fructose diet model. A compound disclosed above was evaluated in this model as an agent to restore insulin sensitivity and lower blood lipids.
Eight week old male Sprague Dawley rats were purchased from Harlan, Inc. The rats weighed 200-225 g upon arrival and were divided into groups as detailed in Table 2 and were immediately placed on a high fructose diet (60% kcal fructose; Open Source Diet # D00111301) ad libitum for three weeks. During the last week of feeding the high fructose diet, the rats were dosed with vehicle (5% solutol, 8% β cyclo-dextrin), subject compound at 30 mg/kg or 100 mg/kg or the control compound at 30 mg/kg by oral gavage once daily for 7 days. On the final day, all animals were placed on a […] followed by a 12 hour re-feed period on the high fructose diet ad libitum.
Body weights were monitored throughout the protocol. After completing the fast or fast/re-feed conditions, the rats were given avertin for anesthesia by intraperitoneal administration. Whole blood was collected by cardiac puncture and the rats were terminated by cervical dislocation. Livers were collected surgically, weighed and immediately frozen in liquid nitrogen. The blood was placed in Li-heparin treated tubes, centrifuged to collect plasma and the plasma frozen.
The plasma was analyzed by standard colorimetric assays for glucose, insulin, triglycerides and cholesterol.

In assay [4] the test system is C57Bl6 mice fed a high fat diet. Nature of the assay: Mouse High Fat Dietary Model with fast/re-feed. It is filed as in vivo. The settings on record: for reduction in body weight vs vehicle: fast/re-feed mice. How it is done: Mouse High Fat Dietary Model
A standard model of human hyperlipidemia and insulin resistance is the mouse fed a high fat diet for several weeks (31, 33). Additionally, since hepatic lipid synthesis is known to be regulated by food consumption, the fast/re-feed cycle of Horton et al. (32) was incorporated into the chronic high fat diet model. The compound was evaluated in this model as an agent to restore insulin sensitivity and lower blood lipids. The chronic high fat diet was fed to mice to simulate a standard Western diet which is elevated in calories from high fat and carbohydrate intake. This and similar models of dietary induced obesity, insulin insensitivity and elevated serum lipids and cholesterol are used as mouse and rat models of human pathology including hyperlipidemia, type II diabetes, atherosclerosis, obesity, cardiovascular and liver disease. These models have been used as excellent predictors of efficacy in human clinical trials (PPAR and FXR agonists).
The farnesoid X receptor (FXR) is a ligand-activated transcription factor and a member of the nuclear receptor superfamily. […] While the mechanism of action of FXR agonists is clearly distinct from PASK inhibition, WAY-362450 has been used as a positive control compound producing physiologically beneficial changes in glucose and lipid metabolism resembling inhibition of PASK. Throughout these in vivo assays, WAY-362450 has been used as a control compound, and will be referred to as such.
Male C57Bl6 mice were obtained from Jackson Laboratories and had been fed a high fat diet (60% kcal fat) for eight weeks. The mice were fed an identical high fat diet (Research Diet D12492) upon arrival and during the study. All mice were treated with the subject compound at 30 or 100 mg/kg, control compound (WAY-362450) at 30 mg/kg or vehicle by oral gavage daily for three days. On the final day, 10 animals from each group began an 24 hour fast and then were sacrificed (fasted groups 1a,2a,3a,4a). Alternatively, 10 animals from each group underwent a 24 hour fast followed by a 12 hour re-feed period with the same high fat diet ad libitum and then were sacrificed (re-fed groups 1b,2b,3b,4b).
Body weights were monitored at the start and end of the protocol. After completing the fast or fast/re-feed conditions, the mice were given avertin for anesthesia by intraperitoneal administration. Whole blood was collected by cardiac puncture and the mice were terminated by cervical dislocation. Livers were collected surgically, weighed and immediately frozen in liquid nitrogen. The blood was placed in Li-heparin treated tubes, centrifuged to collect plasma and the plasma frozen.
The plasma was analyzed by standard colorimetric assays for glucose, insulin, triglycerides and cholesterol. Frozen liver samples were pulverized and extracted in ethanolic KOH and analyzed for liver triglycerides and cholesterol.

Setting [5] is: 30 mg/kg oral gavage once daily for 7 days.
The mark [6] stands for this setting: 30 mg/kg oral gavage daily for three days.
Setting [7] is: fasted and re-fed mice, 30 mg/kg.
The mark [8] stands for this setting: fasted only mice, 30 mg/kg oral gavage daily for three days.

PASK (Homo sapiens (Human), UniProt Q96RG2), sequence (Q96RG2 999-1251): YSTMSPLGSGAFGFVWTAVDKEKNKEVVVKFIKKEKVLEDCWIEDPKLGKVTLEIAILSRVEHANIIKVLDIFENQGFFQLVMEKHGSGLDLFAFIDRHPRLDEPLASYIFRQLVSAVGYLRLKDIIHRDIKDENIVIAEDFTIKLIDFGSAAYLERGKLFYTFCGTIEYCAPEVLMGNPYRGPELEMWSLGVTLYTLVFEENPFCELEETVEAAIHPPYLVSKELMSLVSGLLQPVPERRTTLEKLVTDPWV
PASK (UniProt # Q96RG2; human recombinant N-terminal GST tagged construct, residues 879-1323) (Homo sapiens (Human), UniProt Q96RG2), sequence (Q96RG2 879-1323, change not shown): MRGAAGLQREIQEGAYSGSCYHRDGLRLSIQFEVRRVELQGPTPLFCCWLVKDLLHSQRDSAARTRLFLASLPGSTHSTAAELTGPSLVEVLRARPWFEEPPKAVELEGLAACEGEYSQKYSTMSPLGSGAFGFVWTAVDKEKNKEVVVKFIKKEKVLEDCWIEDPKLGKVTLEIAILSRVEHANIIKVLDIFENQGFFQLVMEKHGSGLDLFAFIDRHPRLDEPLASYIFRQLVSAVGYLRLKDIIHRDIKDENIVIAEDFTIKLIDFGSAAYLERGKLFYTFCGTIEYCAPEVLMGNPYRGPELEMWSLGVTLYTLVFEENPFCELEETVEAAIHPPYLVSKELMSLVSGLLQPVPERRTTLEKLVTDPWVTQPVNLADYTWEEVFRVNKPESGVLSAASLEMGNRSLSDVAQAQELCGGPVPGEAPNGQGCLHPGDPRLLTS

`COc1ccc(C2CCN(c3nc4cc(C(=O)O)ccc4nc3-c3ccccc3)CC2)cc1` [Example 11, 3-(4-(4-Methoxyphenyl)piperidin-1-yl)-2-phenylquinoxaline-6-carboxylic acid]: the IC50 (commonly the concentration that gives 50% inhibition) in assay [1] is less than 10 µM.

`O=C(O)c1ccc2nc(-c3ccccc3)c(N3CCOCC3)nc2c1` [Example 16, 3-Morpholino-2-phenylquinoxaline-6-carboxylic acid]: the IC50 in assay [1] and in assay [2] was less than 10 µM each time.

As to `CN1CCCN(c2nc3cc(C(=O)O)ccc3nc2-c2ccccc2)CC1` [Example 17, 3-(4-Methyl-1,4-diazepan-1-yl)-2-phenylquinoxaline-6-carboxylic acid], the IC50 in assay [1] and in assay [2] was less than 10 µM each time.

With `O=C(O)c1ccc2nc(-c3ccccc3)c(N3CCN(c4ncccn4)CC3)nc2c1` [Example 19, 2-Phenyl-3-(4-(pyrimidin-2-yl)piperazin-1-yl)quinoxaline-6-carboxylic acid], the IC50 in assay [1] and in assay [2] was less than 10 µM in each case.

As for `O=C(O)c1ccc2nc(-c3ccccc3)c(N3CCN(c4ccc(C(F)(F)F)cn4)CC3)nc2c1` [Example 20, 2-Phenyl-3-(4-(5-(trifluoromethyl)pyridin-2-yl)piperazin-1-yl)quinoxaline-6-carboxylic acid], the IC50 in assay [1] and in assay [2] was less than 10 µM throughout.

As for `O=C(O)c1ccc2nc(-c3ccccc3)c(N3CCN(c4ccc5ccccc5n4)CC3)nc2c1` [Example 21, 2-phenyl-3-(4-(quinolin-2-yl)piperazin-1-yl)quinoxaline-6-carboxylic acid], the IC50 in assay [1] and in assay [2] was less than 10 µM in each case.

In the case of `O=C(O)c1ccc2nc(N3CCCCCC3)c(-c3ccccc3)nc2c1` [Example 22, 2-(Azepan-1-yl)-3-phenylquinoxaline-6-carboxylic acid], in assay [1], the IC50 is greater than 10 µM.

Take `O=C(O)c1ccc2nc(N3CCCCC3)c(-c3ccccc3)nc2c1` [Example 23, 3-Phenyl-2-(piperidin-1-yl)quinoxaline-6-carboxylic acid]: the IC50 in assay [1] was less than 10 µM.

On to `O=C(O)c1ccc2nc(N3CCC(c4ccc(Cl)cc4)CC3)c(-c3ccc(F)cc3)nc2c1` [Example 24, 2-(4-(4-Chlorophenyl)piperidin-1-yl)-3-(4-fluorophenyl)quinoxaline-6-carboxylic acid], for which the IC50 in assay [1] and in assay [2] was less than 10 µM in each case.

For `O=C(O)c1ccc2nc(N3CCC(c4cccc(Cl)c4)CC3)c(-c3ccc(F)cc3)nc2c1` [Example 25, 2-(4-(3-Chlorophenyl)piperidin-1-yl)-3-(4-fluorophenyl)quinoxaline-6-carboxylic acid], the 50% inhibitory concentration (IC50) in assay [1] is less than 10 µM.

On to `COc1ccc(C2CCN(c3nc4ccc(C(=O)O)cc4nc3-c3ccc(F)cc3)CC2)cc1` [Example 26, 3-(4-Fluorophenyl)-2-(4-(4-methoxyphenyl)piperidin-1-yl)quinoxaline-6-carboxylic acid], for which the IC50 in assay [1] and in assay [2] was less than 10 µM each time.

As to `O=C(O)c1ccc2nc(N3CCN(c4ccccn4)CC3)c(-c3ccc(F)cc3)nc2c1` [Example 27, 3-(4-Fluorophenyl)-2-(4-(pyridin-2-yl)piperazin-1-yl)quinoxaline-6-carboxylic acid], the IC50 in assay [1] is less than 10 µM.

As for `CC(C)OC(=O)C1=CN(C(=O)c2ccc(F)c(F)c2)CC(C)(C)c2c1[nH]c1ccccc21` [WAY-362450, reference compound], in assay [3] (setting [5]), the “body weight change relative to the Vehicle group” value was “significant increase in body weight”. Further, in assay [3] (30 mg/kg, 7 days), the “increase in plasma cholesterol vs vehicle” value was 17%, the “reduction in plasma triglycerides vs vehicle” value amounted to 68%, the “decrease in plasma glucose compared to vehicle” value is “did not alter plasma glucose concentrations” and the “reduction in plasma insulin levels” value was 63.2%. The “effects on liver weight” value in assay [4] (30 mg/kg) was “identical to those of the subject compound at the same dose”. For the same molecule, the “increase in plasma glucose vs vehicle” value in assay [4] (fast and re-feed mice, 30 mg/kg) is 7.6%. Moreover, the “reduction in body weight vs vehicle” value in assay [4] (setting [6]) is reported as 6.5%. The “decrease in plasma insulin vs vehicle” value in assay [4] (setting [7]) is given as 22%. Also, in assay [4] (fasted only mice, 30 mg/kg), the “decrease in plasma glucose vs vehicle” value is reported as 19% and the “decrease in plasma insulin vs vehicle” value is 39%. For the same molecule, the “decrease in body weight vs vehicle” value in assay [4] (setting [8]) was 4%.

As for `CC(C)N(C)c1nc2cc(C(=O)O)ccc2nc1-c1ccc(F)cc1` [subject compound], the entries for the “body weight change relative to the Vehicle group” value in assay [3] (setting [5]) and in assay [3] (100 mg/kg oral gavage once daily for 7 days) were “modest increase in body weight” and “modest decrease in body weight”, respectively. For the same molecule, the “decrease in plasma cholesterol vs vehicle” value in assay [3] (30 mg/kg, 7 days) is recorded as 5.7%; in assay [3] (100 mg/kg, 7 days), 10%. Besides, the “reduction in plasma triglycerides vs vehicle” value in assay [3] (30 mg/kg, 7 days) was 25.1%; in assay [3] (100 mg/kg, 7 days) it was 54.3%. Further, the “decrease in plasma glucose compared to vehicle” value turned out to be 21.5% in assay [3] (30 mg/kg, 7 days) and 26.3% in assay [3] (100 mg/kg, 7 days). Also, the “reduction in plasma insulin levels” value in assay [3] (30 mg/kg, 7 days) was found to be 15.4%; in assay [3] (100 mg/kg, 7 days), 31.4%. Besides, the “maximal reduction in liver weight” value in assay [3] (100 mg/kg, 7 days) is recorded as “about 4%”. Also, in assay [4] (30 and 100 mg/kg, trend of dose dependent reductions), the “reduction in liver weight” value is given as 7-9%. The “decrease in plasma glucose vs vehicle” value is reported as “up to 21%” in assay [4] (fast and re-feed mice, highest dose 100 mg/kg); 30% in assay [4] (fasted only mice, 30 mg/kg); 43% in assay [4] (fasted only mice, 100 mg/kg). The “reduction in body weight vs vehicle” value in assay [4] (setting [6]) is reported as 2.7%; in assay [4] (100 mg/kg oral gavage daily for three days), 5.1%. Further, the “decrease in plasma insulin vs vehicle” value in assay [4] (setting [7]) was 10%; in assay [4] (fasted and re-fed mice, 100 mg/kg), 28%; in assay [4] (fasted only mice, 30 and 100 mg/kg), “up to 26%”. Also, the “decrease in body weight vs vehicle” value in assay [4] (setting [8]) is 1.8%; in assay [4] (fasted only mice, 100 mg/kg oral gavage daily for three days), 5.1%.

Values taken from patent US10781185B2, “Heterocyclic compounds for the inhibition of PASK” (BioEnergenix LLC, priority 2009, dated 2020).
